Source: ChEMBL document CHEMBL1158467, “In vitro intrinsic clearance-based optimization of N3-phenylpyrazinones as corticotropin-releasing factor-1 (CRF1) receptor antagonists” (J Med Chem, 2009)

Tests used:
[1] = Cmax in Sprague-Dawley rat at 10 mg/kg, po dosed as aqueous suspension of 1% polysorbate 80 in 0.5% methylcellulose within 0.25 to 24 hrs; type: ADME, organism-based; parameters: dose 10 mg/kg, route oral; details: in vivo
[2] = Oral bioavailability in Sprague-Dawley rat at 10 mg/kg dosed as aqueous suspension of 1% polysorbate 80 in 0.5% methylcellulose within 0.25 to 24 hrs; type: ADME, organism-based; details: in vivo
[3] = Aqueous solubility at pH 1; type: physicochemical
Rattus norvegicus [4] = assay: Plasma free concentration in Sprague-Dawley rat at 10 mg/kg, po; type: ADME, organism-based; parameters: dose 10 mg/kg, route oral; details: in vivo
Rattus norvegicus [5] = assay: Ex vivo receptor occupancy of CRF1 receptor in Sprague-Dawley rat brain at 3 mg/kg, po after 20 mins by autoradiography relative to [125I-tyrosine]sauvagine; type: functional
Rattus norvegicus [6] = assay: Total plasma concentration in Sprague-Dawley rat at 1 mg/kg, po; type: ADME, organism-based; parameters: dose 1 mg/kg, route oral; details: in vivo
Rattus norvegicus [7] = assay: Oral bioavailability in Sprague-Dawley rat at 10 mg/kg dosed as aqueous solution of oleoyl macrogolglyceride/DMAC/polysorbate 80, 85:10:5 within 0.25 to 24 hrs; type: ADME, organism-based; details: in vivo
Rattus norvegicus [8] = assay: Ex vivo receptor occupancy of CRF1 receptor in Sprague-Dawley rat brain at 1 mg/kg, po after 20 mins by autoradiography relative to [125I-tyrosine]sauvagine; type: functional
[9] = molecular target: T1, Corticotropin-releasing factor receptor 1 (Homo sapiens, UniProt P34998); assay: Antagonist activity at CRF1 receptor in human Y-79 cells assessed as inhibition of CRF-induced cAMP production after 30 mins by HTRF analysis
T1 sequence (P34998 whole entry): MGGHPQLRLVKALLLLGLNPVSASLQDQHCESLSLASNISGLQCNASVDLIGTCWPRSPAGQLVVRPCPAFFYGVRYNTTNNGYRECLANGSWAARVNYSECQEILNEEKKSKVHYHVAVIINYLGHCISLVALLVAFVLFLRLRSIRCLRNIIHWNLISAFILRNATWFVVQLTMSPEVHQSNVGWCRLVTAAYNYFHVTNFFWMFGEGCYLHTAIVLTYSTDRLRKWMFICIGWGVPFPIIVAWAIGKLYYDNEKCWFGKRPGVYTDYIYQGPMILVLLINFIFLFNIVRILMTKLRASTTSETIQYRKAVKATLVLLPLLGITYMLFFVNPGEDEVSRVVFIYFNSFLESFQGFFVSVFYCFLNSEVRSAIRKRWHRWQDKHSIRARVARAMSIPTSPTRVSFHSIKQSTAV

Rattus norvegicus [10] = assay: Plasma free concentration in Sprague-Dawley rat at 1 mg/kg, po; type: ADME, organism-based; parameters: dose 1 mg/kg, route oral; details: in vivo
Rattus norvegicus [11] = assay: Anxiolytic activity in Sprague-Dawley rat at 3 mg/kg, po assessed as decrease in exit latency after 60 mins by defensive withdrawal test relative to control; type: functional; parameters: scale not given: the % may be the effect or the level left
[12] = Intrinsic clearance in human liver microsomes at 1 uM; type: ADME, Microsome
Rattus norvegicus [13] = assay: Cmax in Sprague-Dawley rat at 10 mg/kg, po dosed as aqueous solution of oleoyl macrogolglyceride/DMAC/polysorbate 80, 85:10:5 within 0.25 to 24 hrs; type: ADME, organism-based; parameters: dose 10 mg/kg, route oral; details: in vivo
[14] = molecular target: Corticotropin releasing hormone receptor 2 (Sus scrofa, UniProt B8Q4Z9); assay: Displacement of [125I]sauvagine from CRF2 receptor in pig choroid plexus by rapid filtration technique; type: tissue-based
Rattus norvegicus [15] = assay: Ex vivo receptor occupancy of CRF1 receptor in Sprague-Dawley rat brain at 10 mg/kg, po after 20 mins by autoradiography relative to [125I-tyrosine]sauvagine; type: functional
[16] = Volume of distribution at steady state in Sprague-Dawley rat 2 mg/kg, iv within 0.17 to 24 hrs; type: ADME, organism-based; parameters: dose 2 mg/kg, route intravenous; details: in vivo, read-out: Vdss
Rattus norvegicus [17] = assay: Anxiolytic activity in Sprague-Dawley rat at 10 mg/kg, po assessed as decrease in exit latency after 60 mins by defensive withdrawal test relative to control; type: functional; parameters: scale not given: the % may be the effect or the level left
[18] = AUC in Sprague-Dawley rat at 10 mg/kg, po dosed as aqueous suspension of 1% polysorbate 80 in 0.5% methylcellulose within 0.25 to 24 hrs; type: ADME, organism-based; parameters: time 0.25-24 hr, dose 10 mg/kg, route oral; details: in vivo
[19] = molecular target: T2, Corticotropin-releasing factor receptor 1 (Rattus norvegicus, UniProt P35353); assay: Displacement of [125I]ovine-CRF from CRF1 receptor in rat frontal cortex by rapid filtration technique; type: tissue-based
T2 sequence (P35353 whole entry): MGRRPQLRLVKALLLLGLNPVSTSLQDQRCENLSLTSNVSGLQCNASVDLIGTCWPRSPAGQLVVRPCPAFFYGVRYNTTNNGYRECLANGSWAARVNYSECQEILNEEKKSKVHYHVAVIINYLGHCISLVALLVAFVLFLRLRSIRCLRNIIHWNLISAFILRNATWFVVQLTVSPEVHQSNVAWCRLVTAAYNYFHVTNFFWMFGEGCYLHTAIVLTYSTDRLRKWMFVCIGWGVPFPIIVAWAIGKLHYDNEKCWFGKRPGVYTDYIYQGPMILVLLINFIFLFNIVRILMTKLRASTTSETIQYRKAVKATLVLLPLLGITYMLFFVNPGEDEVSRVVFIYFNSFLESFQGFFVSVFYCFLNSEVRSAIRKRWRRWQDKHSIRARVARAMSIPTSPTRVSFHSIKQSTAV

[20] = Fraction unbound in Sprague-Dawley rat plasma at 10 mg/kg, po after 3 hrs by equilibrium dialysis; type: ADME, organism-based; parameters: dose 10 mg/kg, route oral
Rattus norvegicus [21] = assay: Total plasma concentration in Sprague-Dawley rat at 3 mg/kg, po; type: ADME, organism-based; parameters: dose 3 mg/kg, route oral; details: in vivo
Rattus norvegicus [22] = assay: Ex vivo receptor occupancy of CRF1 receptor in po dosed Sprague-Dawley rat brain after 20 mins by autoradiography; type: functional, organism-based
Rattus norvegicus [23] = assay: Total plasma concentration in Sprague-Dawley rat at 10 mg/kg, po; type: ADME, organism-based; parameters: dose 10 mg/kg, route oral; details: in vivo
[24] = Aqueous solubility at pH 6.5; type: physicochemical
[25] = Half life in Sprague-Dawley rat 2 mg/kg, iv within 0.17 to 24 hrs; type: ADME, organism-based; parameters: dose 2 mg/kg, route intravenous; details: in vivo
[26] = AUC in Sprague-Dawley rat at 10 mg/kg, po dosed as aqueous solution of oleoyl macrogolglyceride/DMAC/polysorbate 80, 85:10:5 within 0.25 to 24 hrs; type: ADME, organism-based; parameters: time 0.25-24 hr, dose 10 mg/kg, route oral; details: plasma
Rattus norvegicus [27] = assay: Anxiolytic activity in Sprague-Dawley rat at 1 mg/kg, po assessed as decrease in exit latency after 60 mins by defensive withdrawal test relative to control; type: functional; parameters: scale not given: the % may be the effect or the level left
Rattus norvegicus [28] = assay: Plasma free concentration in Sprague-Dawley rat at 3 mg/kg, po; type: ADME, organism-based; parameters: dose 3 mg/kg, route oral; details: in vivo
[29] = Clearance in Sprague-Dawley rat 2 mg/kg, iv within 0.17 to 24 hrs; type: ADME, organism-based; parameters: dose 2 mg/kg, route intravenous; details: in vivo

Sequence of Corticotropin releasing hormone receptor 2 (B8Q4Z9 whole entry): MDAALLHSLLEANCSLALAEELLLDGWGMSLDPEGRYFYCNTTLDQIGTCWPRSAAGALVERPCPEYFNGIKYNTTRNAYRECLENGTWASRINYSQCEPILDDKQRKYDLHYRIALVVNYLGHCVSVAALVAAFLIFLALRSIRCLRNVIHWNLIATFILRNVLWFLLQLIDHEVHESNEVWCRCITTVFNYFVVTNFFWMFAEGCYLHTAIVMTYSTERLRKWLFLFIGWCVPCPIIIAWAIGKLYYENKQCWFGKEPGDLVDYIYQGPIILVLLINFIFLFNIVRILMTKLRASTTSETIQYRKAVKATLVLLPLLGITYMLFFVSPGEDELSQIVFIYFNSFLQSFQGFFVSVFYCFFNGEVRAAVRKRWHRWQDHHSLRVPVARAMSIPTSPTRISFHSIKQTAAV

For `C[C@@H](C1CC1)n1cc(Cl)nc(Nc2c(Cl)cc(OC(F)F)cc2Cl)c1=O`, which Cmax [1] is on record?
The Cmax was 100 nM.

And the bioavailability [2]?
Its bioavailability is 5%.

And the solubility [3]?
The solubility was under 1 µg/mL.

And the “Cp(f)” value (Rattus norvegicus [4])?
The value was 6.1 nM.

And the Activity (Rattus norvegicus [5])?
The Activity was 73%.

What about the concentration (Rattus norvegicus [6]) of the same compound?
Its concentration is 80 nM.

And the F (Rattus norvegicus [7])?
Its F is 52%.

What about the Activity (Rattus norvegicus [8]) of the same compound?
Its Activity is 43%.

What about the IC50 [9] of the same compound?
The IC50 was 4.9 nM.

And the “Cp(f)” value (Rattus norvegicus [10])?
The value was 0.62 nM.

What about the Activity (Rattus norvegicus [11]) of the same compound?
The Activity was 46%.

What about the CLint scaled at 1 µM [12] of the same compound?
Its CLint scaled at 1 µM is 62 mL/min/kg.

What about the Cmax (Rattus norvegicus [13]) of the same compound?
The Cmax was 1700 nM.

What about the IC50 [14] of the same compound?
The IC50 was over 10000 nM.

And the Activity (Rattus norvegicus [15])?
The Activity was 83%.

What about the Vd [16] of the same compound?
The Vd was 4.7 L/kg.

What about the Activity (Rattus norvegicus [17]) of the same compound?
Its Activity is 61%.

And the AUC [18]?
Its AUC is 1.3 µM·h.

And the IC50 [19]?
Its IC50 is 1 nM.

What about the fraction unbound at 3 h [20] of the same compound?
Its fraction unbound at 3 h is 0.0077.

And the concentration (Rattus norvegicus [21])?
The concentration was 270 nM.

What about the Activity (Rattus norvegicus [22]) of the same compound?
The Activity was “Dose-dependent effect”.

And the concentration (Rattus norvegicus [23])?
Its concentration is 790 nM.

What about the solubility [24] of the same compound?
Its solubility is under 1 µg/mL.

What about the half-life [25] of the same compound?
Its half-life is 7.8 h.

What about the AUC [26] of the same compound?
The AUC was 12 µM·h.

And the Activity (Rattus norvegicus [27])?
Its Activity is 8%.

And the “Cp(f)” value (Rattus norvegicus [28])?
The value was 2.1 nM.

What about the clearance [29] of the same compound?
Its clearance is 17 mL/min/kg.
